According to US20250163122A1, “COMPOSITIONS AND METHODS FOR TREATING AIRWAY MUCUS DYSFUNCTION” (BOARD OF REGENTS, THE UNIVERSITY OF TEXAS SYSTEM, priority 2022, published 2025):
Where a SMILES comes first, the peptide text is derived from it. Bridges are numbered along the chain shown (N, C = ends). [ ]: non-standard residue; d: D form. S5 = C=CCCC[C@](C)(N)C(=O)O

Molecular target: airway epithelial SNAREs, Syt2, Munc13-2*, Munc18-2, NSF, and αSNAP (Rattus norvegicus, UniProt P29101)
Assay: Single vesicle content mixing assay, airway system with complete reconstitution
Type: biochemical
Details: for Ca2+ independent fusion events / Ca2+ triggered fusion events: Munc13-2* + 10 μM SP9, raw count
Experimental: FIGS. 3A-3G show the effect of stapled peptides on fusion with complete airway system reconstitution according to certain aspects of this disclosure. […] PM: vesicles with reconstituted Stx3 and SNAP-23 that mimic the plasma membrane of epithelial cells; SM: vesicles with reconstituted Stx3/Munc18-2 complex; SG: mucin-containing secretory granules. 0.5 μM Munc13-2* fragment was added after formation of the SM vesicles and during all subsequent stages. 10 μM stapled peptide was added together with SG vesicles and was present during all subsequent stages. […] The fusion probabilities and amplitudes were normalized to the number of analyzed SG—airway PM vesicle pairs (see TABLE 4). FIGS. 3C, 3E, 3F, and 3G show means±SEM for multiple independent repeat experiments (see TABLE 2).
For single vesicle content mixing assay, the lipid composition of the SV, SG, VAMP2, or VAMP8 vesicles was phosphatidylcholine (PC) (48%), phosphatidylethanolamine (PE) (20%), phosphatidylserine (PS) (12%), and cholesterol (20%); for both the neuronal and airway PM vesicles the lipid composition was Brain Total Lipid Extract supplemented 3.5 mol % PIP2, and 0.1 mol % biotinylated phosphatidylethanolamine (PE).
The reconstitution method for neuronal PM and SV vesicles was described in detail previously (see Lai et al., 2017; Kyoung et al., 2011; and Lai et al., 2014). The same methods were used for airway PM, SG, VAMP2, and VAMP8 vesicles. Dried lipid films were dissolved in 110 mM OG buffer containing purified proteins at protein-to-lipid ratios of 1:200 for VAMP2 and Stx1A for SV and neuronal PM vesicles, respectively (or 1:200 for VAMP8 and Stx3 for SG and airway PM vesicles, respectively), and 1:800 for Syt1 for SV vesicles (or 1:1200 for Syt2 for SG vesicles).
A 3-5 fold excess of SNAP-25A or SNAP-23 (with respect to Stx1A or Stx3) and 3.5 mol % PIP2 were added to the protein-lipid mixture for neuronal or airway PM vesicles. […] For the preparation of SV, SG, VAMP2, or VAMP8 vesicles for single vesicle content mixing assay, 50 mM sulforhodamine B (Thermo Fisher Scientific) was added to the protein-lipid mixture. The vesicles subsequently formed during size exclusion chromatography using a Sepharose CL-4B column, packed under near constant pressure by gravity with a peristaltic pump (GE Healthcare) in a 5.5 ml column with a ˜5 ml bed volume that was equilibrated with buffer V (20 mM HEPES, pH 7.4, 90 mM NaCl) supplemented with 20 μM EGTA and 0.1% 2-mercaptoethanol. The eluent was subjected to dialysis into 21 of detergent-free buffer V supplemented with 20 μM EGTA, 0.1% 2-mercaptoethanol, 5 g of Bio-beads SM2 (Bio-Rad) and 0.8 g/L Chelex 100 resin (Bio-Rad). After 4 hours, the buffer was exchanged with 21 of fresh buffer V supplemented with 20 μM EGTA, 0.1% 2-mercaptoethanol and Bio-beads, and the dialysis continued for another 12 h (overnight). […] For ensemble lipid mixing assay, the reconstitution method is the same as that for the single vesicle content mixing assay, except that 50 mM sulforhodamine B was omitted for all the steps.
Single vesicle content mixing experiments. All single vesicle fusion and single molecule experiments were performed on a prism-type total internal reflection fluorescence (TIRF) microscope using 532 nm (green) laser (CrystaLaser) excitation. Two observation channels were created by a 640 nm single-edge dichroic beamsplitter (FF640-FDi01-25x36, Shemrock): one channel was used for the fluorescence emission intensity of the content dyes and the other channel for that of the Cy5 dye that are part of the injected Ca^2+-solution. The two channels were recorded on two adjacent rectangular areas (45×90 m^2) of a charge-coupled device (CCD) camera (iXon+DV 897E, Andor Technology). The imaging data were recorded with the smCamera software developed by Taekjip Ha, Johns Hopkins University, Baltimore. […]

Sequence of airway epithelial SNAREs, Syt2, Munc13-2*, Munc18-2, NSF, and αSNAP (P29101 whole entry): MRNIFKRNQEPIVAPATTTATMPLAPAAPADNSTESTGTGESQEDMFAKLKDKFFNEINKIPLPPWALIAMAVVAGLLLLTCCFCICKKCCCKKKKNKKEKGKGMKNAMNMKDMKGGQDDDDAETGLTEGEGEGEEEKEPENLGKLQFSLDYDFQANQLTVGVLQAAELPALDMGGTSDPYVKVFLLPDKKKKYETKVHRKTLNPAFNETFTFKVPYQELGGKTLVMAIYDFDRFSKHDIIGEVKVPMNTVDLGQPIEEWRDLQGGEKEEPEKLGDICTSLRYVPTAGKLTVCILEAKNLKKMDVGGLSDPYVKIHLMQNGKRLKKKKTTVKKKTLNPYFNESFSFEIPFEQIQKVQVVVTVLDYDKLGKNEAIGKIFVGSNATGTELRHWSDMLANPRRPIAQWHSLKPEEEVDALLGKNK

CC[C@H](C)[C@H](NC(=O)[C@]1(C)CCCC=CCCC[C@](C)(NC(=O)[C@H](CCC(=O)O)NC(=O)[C@H](CCC(=O)O)NC(C)=O)C(=O)N[C@@H](CCCCN)C(=O)N[C@@H](CC(=O)O)C(=O)N[C@@H](C)C(=O)N1)C(=O)N[C@@H](CCCNC(=N)N)C(=O)N[C@@]1(C)CCCC=CCCC[C@@](C)(C(=O)N[C@@H](CC(=O)O)C(=O)N[C@@H](CCC(=O)O)C(=O)N[C@@H](CCC(N)=O)C(=O)N[C@@H](CS)C(N)=O)NC(=O)[C@H](CCSC)NC(=O)[C@H](C(C)C)NC(=O)[C@H](CC(C)C)NC1=O [SP9, Ac-EE(S5)KDA(S5)IR(S5)LVM(S5)DEQC-amide] (Ac-EE[S5]KDA[S5]IR[S5]LVM[S5]DEQC-NH2; staple 3-7, 10-14)
effect on Ca2+-independent fusion probability (10 μM peptide): only moderately reduced
effect on vesicle association (10 μM peptide): no effect
effect on Ca2+-triggered fusion amplitude, cumulative fusion probability and synchronization (10 μM peptide, both 50 μM and 500 μM Ca2+): strongly inhibited
Ca2+ independent fusion events (50 μM Ca2+ experiment): 23
Ca2+ triggered fusion events (50 μM Ca2+): 89
Ca2+ independent fusion events (500 μM Ca2+ experiment): 41
Ca2+ triggered fusion events (500 μM Ca2+): 106
